# Reference: PMC5218480 (PLoS ONE, 2017)
# Test system: MV-4-11 cells
# Assay: Gene expression microarray analysis (Affymetrix PrimeView) and GSEA
# Assay type: cell-based, human
# Set-up: RFU PODN (11730768_x_at) / Fold change /veh PODN (11730768_x_at) / RFU LINC00158 (11744669_a_at) / Fold change /veh LINC00158 (11744669_a_at) / RFU DUSP10 (11751237_a_at) / Fold change /veh DUSP10 (11751237_a_at) / RFU ID3 (11757404_x_at) / Fold change /veh ID3 (11757404_x_at) / RFU PLEKHG5 (11737974_s_at) / Fold change /veh PLEKHG5 (11737974_s_at) / RFU LRRC4B (11730491_at) / Fold change /veh LRRC4B (11730491_at) / RFU GIMAP4 (11747438_a_at) / Fold change /veh GIMAP4 (11747438_a_at) / RFU KRT8 (11758183_x_at) / Fold change /veh KRT8 (11758183_x_at) / RFU CNN1 (11734310_a_at) / Fold change /veh CNN1 (11734310_a_at) / RFU VPS37D (11726825_at) / Fold change /veh VPS37D (11726825_at) / RFU C10orf10 (11716522_x_at) / Fold change /veh C10orf10 (11716522_x_at) / RFU KIR2DL2 /// KIR2DL4 /// KIR2DL5A /// KIR2DL5B /// KIR2DS1 /// KIR2DS2 /// KIR2DS3 /// KIR2DS4 /// KIR3DL3 /// KIR3DL3 /// KIR3DS1 (11738374_at) / Fold change /veh KIR2DL2 /// KIR2DL4 /// KIR2DL5A /// KIR2DL5B /// KIR2DS1 /// KIR2DS2 /// KIR2DS3 /// KIR2DS4 /// KIR3DL3 /// KIR3DL3 /// KIR3DS1 (11738374_at) / RFU C1QL1 (11718748_at) / Fold change /veh C1QL1 (11718748_at) / RFU TMPRSS4 (11747572_a_at) / Fold change /veh TMPRSS4 (11747572_a_at) / RFU HAMP (11756126_x_at) / Fold change /veh HAMP (11756126_x_at) / RFU RNFT2 (11725882_a_at) / Fold change /veh RNFT2 (11725882_a_at) / RFU NR4A2 (11747474_a_at) / Fold change /veh NR4A2 (11747474_a_at) / RFU ABCC12 (11746883_a_at) / Fold change /veh ABCC12 (11746883_a_at) / RFU TMEM136 (11760407_x_at) / Fold change /veh TMEM136 (11760407_x_at) / RFU CLDN22 /// WWC2 (11732394_at) / Fold change /veh CLDN22 /// WWC2 (11732394_at) / RFU HLA-DPB1 (11760878_x_at) / Fold change /veh HLA-DPB1 (11760878_x_at) / RFU SPINT1 (11716480_a_at) / Fold change /veh SPINT1 (11716480_a_at) / RFU GAP43 (11754022_s_at) / Fold change /veh GAP43 (11754022_s_at) / RFU A4GNT (11735810_at) / Fold change /veh A4GNT (11735810_at) / RFU PRB3 (11715151_x_at) / Fold change /veh PRB3 (11715151_x_at) / RFU TUBB4B (11761932_at) / Fold change /veh TUBB4B (11761932_at) / RFU CAPN14 (11732068_a_at) / Fold change /veh CAPN14 (11732068_a_at) / RFU TMCC2 (11721928_a_at) / Fold change /veh TMCC2 (11721928_a_at) / RFU IRGQ (11745062_a_at) / Fold change /veh IRGQ (11745062_a_at) / RFU FAM174B (11720279_a_at) / Fold change /veh FAM174B (11720279_a_at) / RFU TMPRSS4 (11748680_a_at) / Fold change /veh TMPRSS4 (11748680_a_at) / RFU FAM212B (11763350_a_at) / Fold change /veh FAM212B (11763350_a_at) / RFU PLEKHG5 (11743358_a_at) / Fold change /veh PLEKHG5 (11743358_a_at) / RFU ZSCAN30 (11745921_a_at) / Fold change /veh ZSCAN30 (11745921_a_at) / RFU CMKLR1 (11741424_a_at) / Fold change /veh CMKLR1 (11741424_a_at) / RFU LOC101060620 /// MAPK8IP1 (11723275_at) / Fold change /veh LOC101060620 /// MAPK8IP1 (11723275_at) / RFU SPTSSB (11747773_x_at) / Fold change /veh SPTSSB (11747773_x_at) / RFU PRSS12 (11739890_at) / Fold change /veh PRSS12 (11739890_at) / RFU BIN1 (11741810_x_at) / Fold change /veh BIN1 (11741810_x_at) / RFU WNT11 (11732464_a_at) / Fold change /veh WNT11 (11732464_a_at) / RFU C10orf10 (11716521_a_at) / Fold change /veh C10orf10 (11716521_a_at) / RFU C5orf56 (11738089_at) / Fold change /veh C5orf56 (11738089_at) / RFU CYB561 (11721691_x_at) / Fold change /veh CYB561 (11721691_x_at) / RFU ANKRD19P (11752326_a_at) / Fold change /veh ANKRD19P (11752326_a_at) / RFU OR2T12 /// OR2T33 /// OR2T8 (11738714_s_at) / Fold change /veh OR2T12 /// OR2T33 /// OR2T8 (11738714_s_at) / RFU VCAN (11748164_a_at) / Fold change /veh VCAN (11748164_a_at) / RFU JSRP1 (11732532_at) / Fold change /veh JSRP1 (11732532_at) / RFU KRTAP10-11 (11738290_x_at) / Fold change /veh KRTAP10-11 (11738290_x_at) / RFU MYO3A (11730013_a_at) / Fold change /veh MYO3A (11730013_a_at) / RFU EBF3 (11725865_a_at) / Fold change /veh EBF3 (11725865_a_at) / RFU CAMK2N1 (11719241_x_at) / Fold change /veh CAMK2N1 (11719241_x_at) / RFU C5orf56 (11738088_a_at) / Fold change /veh C5orf56 (11738088_a_at) / RFU OLFML3 (11715873_a_at) / Fold change /veh OLFML3 (11715873_a_at) / RFU LOC100653217 /// NTM (11731650_a_at) / Fold change /veh LOC100653217 /// NTM (11731650_a_at) / RFU MAPK11 (11762145_a_at) / Fold change /veh MAPK11 (11762145_a_at) / RFU FIZ1 (11724087_x_at) / Fold change /veh FIZ1 (11724087_x_at) / RFU OASL (11726364_x_at) / Fold change /veh OASL (11726364_x_at) / RFU SOX15 (11748057_x_at) / Fold change /veh SOX15 (11748057_x_at) / RFU CD79A (11719716_a_at) / Fold change /veh CD79A (11719716_a_at) / RFU HIST1H1D (11736915_at) / Fold change /veh HIST1H1D (11736915_at) / RFU CASKIN2 (11723855_a_at) / Fold change /veh CASKIN2 (11723855_a_at) / RFU LOC730098 (11760151_x_at) / Fold change /veh LOC730098 (11760151_x_at) / RFU OR4N2 (11742367_at) / Fold change /veh OR4N2 (11742367_at) / RFU PRRT2 (11749266_a_at) / Fold change /veh PRRT2 (11749266_a_at) / RFU SNX32 (11753110_a_at) / Fold change /veh SNX32 (11753110_a_at) / RFU CDHR5 (11726645_a_at) / Fold change /veh CDHR5 (11726645_a_at) / RFU RCAN1 (11760418_a_at) / Fold change /veh RCAN1 (11760418_a_at) / RFU FAM167A (11723789_a_at) / Fold change /veh FAM167A (11723789_a_at) / RFU FAM26E (11764081_at) / Fold change /veh FAM26E (11764081_at) / RFU ISYNA1 (11749810_s_at) / Fold change /veh ISYNA1 (11749810_s_at) / RFU ACY1 (11761880_at) / Fold change /veh ACY1 (11761880_at) / RFU 11764098_at / Fold change /veh 11764098_at / RFU SAMD14 (11745864_x_at) / Fold change /veh SAMD14 (11745864_x_at) / RFU NPB (11741838_a_at) / Fold change /veh NPB (11741838_a_at) / RFU TMPRSS6 (11731388_a_at) / Fold change /veh TMPRSS6 (11731388_a_at) / RFU KRTAP10-2 (11738614_at) / Fold change /veh KRTAP10-2 (11738614_at) / RFU ARHGAP8 /// PRR5-ARHGAP8 (11727945_x_at) / Fold change /veh ARHGAP8 /// PRR5-ARHGAP8 (11727945_x_at) / RFU KRTAP5-7 /// NADSYN1 (11734609_at) / Fold change /veh KRTAP5-7 /// NADSYN1 (11734609_at) / RFU RASL12 (11751679_a_at) / Fold change /veh RASL12 (11751679_a_at) / RFU CDKN2B (11736163_a_at) / Fold change /veh CDKN2B (11736163_a_at) / RFU PRF1 (11729649_at) / Fold change /veh PRF1 (11729649_at) / RFU, ZNF638 /// ZNF638-IT1 / Fold change vs veh, ZNF638 /// ZNF638-IT1 / RFU, PANK3 / Fold change vs veh, PANK3 / RFU, SH3YL1 / Fold change vs veh, SH3YL1 / RFU, ZEB2 / Fold change vs veh, ZEB2 / RFU, NRIP1 / Fold change vs veh, NRIP1 / RFU, PTTG1IP / Fold change vs veh, PTTG1IP / RFU, CAPN2 / Fold change vs veh, CAPN2 / RFU, MED14 / Fold change vs veh, MED14 / RFU, SNORA58 / Fold change vs veh, SNORA58 / RFU, C1orf63 / Fold change vs veh, C1orf63 / RFU, LRRFIP1 / Fold change vs veh, LRRFIP1 / RFU, NDUFAF7 / Fold change vs veh, NDUFAF7 / RFU, SLC12A2 / Fold change vs veh, SLC12A2 / RFU, IBTK / Fold change vs veh, IBTK / RFU, ESF1 / Fold change vs veh, ESF1 / Fold change vs veh, TMEM50B / RFU, TAOK1 / Fold change vs veh, TAOK1 / RFU, ACBD3 / Fold change vs veh, ACBD3 / RFU, TMA16 / Fold change vs veh, TMA16 / RFU, RWDD3 / Fold change vs veh, RWDD3 / RFU, BCAT1 / Fold change vs veh, BCAT1 / RFU, EDEM3 / Fold change vs veh, EDEM3 / RFU, TMEM33 / Fold change vs veh, TMEM33 / RFU, WDR75 / Fold change vs veh, WDR75 / RFU, AHCTF1 / Fold change vs veh, AHCTF1 / RFU, TFRC / Fold change vs veh, TFRC / RFU, ZDHHC17 / Fold change vs veh, ZDHHC17 / RFU, NOM1 / Fold change vs veh, NOM1 / RFU, ARL8B / Fold change vs veh, ARL8B / RFU, ZBTB11 / Fold change vs veh, ZBTB11 / RFU, TAMM41 / Fold change vs veh, TAMM41 / RFU, KIAA1704 /// LOC100996395 / Fold change vs veh, KIAA1704 /// LOC100996395 / RFU, ING1 / Fold change vs veh, ING1 / RFU, TRMT61B / Fold change vs veh, TRMT61B / RFU, FUBP3 / Fold change vs veh, FUBP3 / RFU, TP53 / Fold change vs veh, TP53 / RFU, TNKS2 / Fold change vs veh, TNKS2 / RFU, ZFP14 / Fold change vs veh, ZFP14 / RFU, ACTR2 / Fold change vs veh, ACTR2 / RFU, PPP3R1 / Fold change vs veh, PPP3R1 / RFU, PIK3R1 / Fold change vs veh, PIK3R1 / RFU, HNRNPA1 / Fold change vs veh, HNRNPA1 / RFU, RNF170 / Fold change vs veh, RNF170 / RFU, ZNF28 / Fold change vs veh, ZNF28 / RFU, RNGTT / Fold change vs veh, RNGTT / RFU, OGT / Fold change vs veh, OGT / RFU, BRD1 / Fold change vs veh, BRD1 / RFU, MARS / Fold change vs veh, MARS / RFU, ZNF655 / Fold change vs veh, ZNF655 / RFU, FAHD1 / Fold change vs veh, FAHD1 / RFU, BDP1 / Fold change vs veh, BDP1 / RFU, LRRCC1 / Fold change vs veh, LRRCC1 / RFU, ARID1A / Fold change vs veh, ARID1A / RFU, ZNF146 / Fold change vs veh, ZNF146 / RFU, ZNF330 / Fold change vs veh, ZNF330 / RFU, GPN3 / Fold change vs veh, GPN3 / RFU, C9orf123 / Fold change vs veh, C9orf123 / RFU, N4BP2L2 / Fold change vs veh, N4BP2L2 / RFU, ARFIP1 / Fold change vs veh, ARFIP1 / RFU, FAM179B / Fold change vs veh, FAM179B / RFU, BCL10 / Fold change vs veh, BCL10 / RFU, UHRF1BP1L / Fold change vs veh, UHRF1BP1L / RFU, BET1 / Fold change vs veh, BET1 / RFU, CNOT2 / Fold change vs veh, CNOT2 / RFU, ZNF268 / Fold change vs veh, ZNF268 / Fold change vs veh, ZNF507 / RFU, DGCR2 / Fold change vs veh, DGCR2 / RFU, WDSUB1 / Fold change vs veh, WDSUB1 / Fold change vs veh, HSP90B1 /// MIR3652 / RFU, ADSS / Fold change vs veh, ADSS / RFU, GK / Fold change vs veh, GK / RFU, ZNF148 / Fold change vs veh, ZNF148 / RFU, TAF9 / Fold change vs veh, TAF9 / RFU, SLC1A5 / Fold change vs veh, SLC1A5 / RFU, SLMO2 / Fold change vs veh, SLMO2 / RFU, ABCC4 / Fold change vs veh, ABCC4 / RFU, LOC101060439 /// RAP1B / Fold change vs veh, LOC101060439 /// RAP1B / RFU, RFX7 / Fold change vs veh, RFX7 / RFU, GTPBP10 / Fold change vs veh, GTPBP10 / RFU, CNEP1R1 / Fold change vs veh, CNEP1R1 / RFU, BIVM-ERCC5 /// ERCC5 / Fold change vs veh, BIVM-ERCC5 /// ERCC5 / RFU, ILF3 / Fold change vs veh, ILF3 / RFU 11762660_at / Fold change /veh 11762660_at / RFU VCAN (11757783_s_at) / Fold change /veh VCAN (11757783_s_at) / RFU DDX43 (11728927_at) / Fold change /veh DDX43 (11728927_at) / RFU KRT8 (11758188_x_at) / Fold change /veh KRT8 (11758188_x_at) / RFU NKD1 (11759106_at) / Fold change /veh NKD1 (11759106_at) / RFU SRD5A1 (11742802_a_at) / Fold change /veh SRD5A1 (11742802_a_at) / RFU TPSAB1 /// TPSB2 (11721975_s_at) / Fold change /veh TPSAB1 /// TPSB2 (11721975_s_at) / RFU GSTM3 (11746129_a_at) / Fold change /veh GSTM3 (11746129_a_at) / RFU IL23R (11737362_x_at) / Fold change /veh IL23R (11737362_x_at) / RFU TMEM51 (11727254_a_at) / Fold change /veh TMEM51 (11727254_a_at) / RFU PIWIL2 (11732686_x_at) / Fold change /veh PIWIL2 (11732686_x_at) / RFU ORM1 (11744905_x_at) / Fold change /veh ORM1 (11744905_x_at) / RFU CCDC152 (11743942_at) / Fold change /veh CCDC152 (11743942_at) / RFU ECM1 (11717891_a_at) / Fold change /veh ECM1 (11717891_a_at) / RFU IL23R (11748794_a_at) / Fold change /veh IL23R (11748794_a_at) / RFU TNFAIP8L3 (11732012_x_at) / Fold change /veh TNFAIP8L3 (11732012_x_at) / RFU MBOAT4 (11741988_at) / Fold change /veh MBOAT4 (11741988_at) / RFU 11764193_at / Fold change /veh 11764193_at / RFU TMEM53 (11763286_at) / Fold change /veh TMEM53 (11763286_at) / RFU MAGEB2 (11727129_at) / Fold change /veh MAGEB2 (11727129_at) / RFU TMEM200A (11744735_a_at) / Fold change /veh TMEM200A (11744735_a_at) / RFU CCDC152 (11751479_a_at) / Fold change /veh CCDC152 (11751479_a_at) / RFU FAM211A (11726209_a_at) / Fold change /veh FAM211A (11726209_a_at) / RFU RGS16 (11746705_a_at) / Fold change /veh RGS16 (11746705_a_at) / RFU VCAN (11755009_s_at) / Fold change /veh VCAN (11755009_s_at) / RFU RHOB (11743442_s_at) / Fold change /veh RHOB (11743442_s_at) / RFU RGS16 (11720943_a_at) / Fold change /veh RGS16 (11720943_a_at) / RFU RGS16 (11720944_at) / Fold change /veh RGS16 (11720944_at) / RFU, VPS4B / Fold change vs veh, VPS4B / RFU, CREB1 / Fold change vs veh, CREB1 / RFU, DNAJC13 / Fold change vs veh, DNAJC13 / RFU, GNAQ / Fold change vs veh, GNAQ / RFU, CDK5R1 / Fold change vs veh, CDK5R1 / RFU, ZRANB3 / Fold change vs veh, ZRANB3 / RFU, CUL4A / Fold change vs veh, CUL4A / RFU, CCNY / Fold change vs veh, CCNY / RFU, UFL1 / Fold change vs veh, UFL1 / RFU, COG3 / Fold change vs veh, COG3 / RFU, DIAPH2 / Fold change vs veh, DIAPH2 / RFU, SKA2 / Fold change vs veh, SKA2 / RFU, AFF3 / Fold change vs veh, AFF3 / RFU, LMF1 / Fold change vs veh, LMF1 / RFU, IPO11 / Fold change vs veh, IPO11 / RFU, DFFB / Fold change vs veh, DFFB / RFU, FOXP1 / Fold change vs veh, FOXP1 / RFU, CARD8 / Fold change vs veh, CARD8 / RFU, STRN3 / Fold change vs veh, STRN3 / RFU, ADK / Fold change vs veh, ADK / RFU, RASSF2 / Fold change vs veh, RASSF2 / RFU, WIPF1 / Fold change vs veh, WIPF1 / RFU, LARP1B / Fold change vs veh, LARP1B / RFU, RASA1 / Fold change vs veh, RASA1 / RFU, RB1 / Fold change vs veh, RB1 / RFU, PPFIA1 / Fold change vs veh, PPFIA1 / RFU, MAT2A / Fold change vs veh, MAT2A / RFU, CCT5 / Fold change vs veh, CCT5 / RFU, WDR92 / Fold change vs veh, WDR92 / RFU, CUX1 / Fold change vs veh, CUX1 / RFU, TTC7A / Fold change vs veh, TTC7A / RFU, TMEM135 / Fold change vs veh, TMEM135 / RFU, DEPTOR / Fold change vs veh, DEPTOR / RFU, CPM / Fold change vs veh, CPM / RFU, DNAJB6 / Fold change vs veh, DNAJB6 / RFU, CACNA2D3 / Fold change vs veh, CACNA2D3 / RFU, DTX4 / Fold change vs veh, DTX4 / RFU, TFCP2 / Fold change vs veh, TFCP2 / RFU, GMCL1 /// GMCL1P1 / Fold change vs veh, GMCL1 /// GMCL1P1 / RFU, AEBP2 / Fold change vs veh, AEBP2 / RFU, SNHG1 /// SNORD22 /// SNORD25 /// SNORD26 /// SNORD27 /// SNORD28 /// SNORD29 /// SNORD31 / Fold change vs veh, SNHG1 /// SNORD22 /// SNORD25 /// SNORD26 /// SNORD27 /// SNORD28 /// SNORD29 /// SNORD31 / Fold change (Aza/veh), C12orf56 (ProbeSet 11735607_a_at) / Fold change (ACY-1035/veh), C12orf56 (ProbeSet 11735607_a_at) / Fold change (Aza/veh), FGFR1OP (ProbeSet 11751329_s_at) / Fold change (ACY-1035/veh), FGFR1OP (ProbeSet 11751329_s_at) / Fold change (Aza/veh), VPS36 (ProbeSet 11739960_a_at) / Fold change (ACY-1035/veh), VPS36 (ProbeSet 11739960_a_at) / RFU SYPL1 (11715823_x_at) / Fold change /veh SYPL1 (11715823_x_at) / RFU IGFBP7 (11715501_s_at) / Fold change /veh IGFBP7 (11715501_s_at) / RFU REEP3 (11722064_at) / Fold change /veh REEP3 (11722064_at) / RFU IGLL1 (11728026_x_at) / Fold change /veh IGLL1 (11728026_x_at): dose or concentration left out as unconfirmed
# Details: MV-4-11 cells, 48 hours
smiles,measurement,value
Nc1ncn([C@@H]2O[C@H](CO)[C@@H](O)[C@H]2O)c(=O)n1 [azacitidine],RFU IRGQ (11745062_a_at),24.06 RFU
